Laboratory results from the supplement of paper PMC10307832.

Experiments:
Assay in all cases: relative viability (nuclei count vs DMSO), 5 days (fraction); higher = more cells survive
[1] = compound: CCC1=CN=CN=C1N2CCN(CC2)CC3=NC4=C(N3)C=C(C=C4)C(F)(F)F + C[C@@H](Oc1cc(-c2cnn(C3CCNCC3)c2)cnc1N)c1c(Cl)ccc(F)c1Cl [Crizotinib] (partner 1 µM)
How it was run: (§1)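 For relative viability, nuclei counts in treated wells were divided by those in vehicle wells. Lung cancer cell lines had been pin-tool dosed in 1536-well plates the day after seeding and cultured for 5 days, then fixed and stained in one step (final 0.05% Triton X-100, 1% formaldehyde, 1 ug/ml Hoechst) and imaged at 4×. Doses were one drug alone or a fixed anchor-drug dose plus five library-drug doses (not always all listed) in √10 steps, and values are duplicate-plate medians.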

[2] = compound: CCC1=CN=CN=C1N2CCN(CC2)CC3=NC4=C(N3)C=C(C=C4)C(F)(F)F + C[C@]1(O)C[C@@H](c2nc(-c3ccc4ccc(-c5ccccc5)nc4c3)c3c(N)nccn32)C1 [Linsitinib] (partner 1 µM)
How it was run: as §1

[3] = compound: CCC1=CN=CN=C1N2CCN(CC2)CC3=NC4=C(N3)C=C(C=C4)C(F)(F)F + Nc1ncn([C@H]2C[C@H](O)[C@@H](CO)O2)c(=O)n1 [Decitabine] (partner 2 µM)
How it was run: as §1

Mirin + Bortezomib = compound: N=C1NC(=O)/C(=C/c2ccc(O)cc2)S1 [Mirin] + CC(C)C[C@H](NC(=O)[C@H](Cc1ccccc1)NC(=O)c1cnccn1)B(O)O [Bortezomib] (partner 0.002 µM)
How it was run: as §1

Cell Line	relative viability ([1]; first compound 0.04 µM)	relative viability ([1]; first compound 0.1265 µM)	relative viability ([1]; first compound 0.4 µM)	relative viability ([1]; first compound 1.265 µM)	relative viability ([1]; first compound 4 µM)	relative viability ([2]; first compound 0.04 µM)	relative viability ([2]; first compound 0.1265 µM)	relative viability ([2]; first compound 0.4 µM)	relative viability ([2]; first compound 1.265 µM)	relative viability ([2]; first compound 4 µM)	relative viability ([3]; first compound 0.04 µM)	relative viability ([3]; first compound 0.1265 µM)	relative viability ([3]; first compound 0.4 µM)	relative viability ([3]; first compound 1.265 µM)	relative viability ([3]; first compound 4 µM)	relative viability (Mirin + Bortezomib; first compound 0.25 µM)	relative viability (Mirin + Bortezomib; first compound 0.7906 µM)	relative viability (Mirin + Bortezomib; first compound 2.5 µM)	relative viability (Mirin + Bortezomib; first compound 7.906 µM)	relative viability (Mirin + Bortezomib; first compound 25 µM)
201T	0.985	0.993	1.03	1.02	1.12	0.922	1.04	0.998	0.88	1.01	0.823	0.813	0.879	0.869	0.819	1.12	1.12	1.2	1.18	1.23
A549	0.734	0.801	0.816	0.829	0.827	0.596	0.549	0.629	0.28	0.615	0.277	0.121	0.237	0.265	0.247					
A-427	0.918	0.825	1.04	0.714	0.865	1.12	1.11	1.03	1.05	0.857	0.55	0.548	0.556	0.535	0.599	0.97		1.01	1.03	1.02
ABC-1	1.09	1.04	1.38	1.11	0.852	0.873	0.777	0.676	0.631	0.831			1.04	0.84	0.887	0.293	0.254	0.306	0.339	0.293
BEN	0.924	0.868	0.963	0.532	0.662	0.868	0.82	0.802	0.531	0.477	0.638	0.61	0.703	0.548	0.508	0.638	0.779	0.967	0.625	0.548
CAL-12T	0.629	0.621	0.805	0.808	1.12	0.744	0.771	0.731	0.754	0.901						0.921		0.967		1.43
COR-L23	0.58	0.621	0.66	0.694	0.975	0.864	0.94	0.815	0.874	0.914	0.438	0.378	0.406	0.383	0.499	1.1	1.08	1.03	1.06	0.968
COR-L 105	0.861	0.795	0.972	0.922	1.24	0.953	0.925	0.873	0.839	0.977	0.665	0.652	0.698	0.541	0.669	0.866	0.759	0.903	0.992	0.769
Calu-6	0.742	0.707	0.832	0.905	0.982	0.883	0.851	0.871	0.819	1.02						0.925	1.08	1.04	0.895	0.841
ChaGo-K-1		1.15	1.21	1.12	1.16						0.554	0.471	0.526	0.501	0.488	0.984		0.953	0.628	0.969
EBC-1	0.186	0.169	0.218	0.196	0.169	0.996	0.811	0.782	0.759	0.897						0.596	0.629	0.55	0.535	0.316
EKVX	1.22	0.728	0.915	0.873	1.07	1.01	0.897	0.954	0.769	0.905	0.264	0.289	0.328	0.344	0.335	1.05	0.979	1	1.03	1.04
EMC-BAC-2	0.779	0.734	0.77	0.889	1.03	0.816	0.771	0.808	0.728	0.791		0.945	0.998	0.924	1.05	1.11	1.08	1.07	1.05	1.11
EPLC-272H	0.81	0.867	0.89	0.959	1.19	1.07	0.96	1	1.43	1.33	0.347	0.319	0.388	0.288	0.406	0.962		1.04	0.714	0.826
H3255	0.864	0.888	0.794	0.757	0.941	0.937	0.956	0.904	0.825	0.772	0.578	0.555	0.594	0.52	0.55	0.778	0.725	0.837	0.698	0.769
HARA	1.06	0.972	1.01	1.03	1.18	0.915	0.832	0.919	0.733	0.831	0.424	0.505	0.533	0.508	0.512	1.09	1.11	1.17	1.1	1.17
HCC-15	0.75	0.78	0.819	0.946	1.06	0.945	0.801	0.815	0.812	0.846	0.537	0.558	0.633	0.608	0.575	1.02	0.928	1.03	0.893	0.949
HCC-44	0.83	0.774	0.874	0.762	0.843	0.652	0.648	0.666	0.643	0.634	0.964	0.939	0.944	0.949	0.937	0.876	0.955	0.846	0.856	1.13
